In a melting point compilation (Tetko et al.; mined from patent text by program, amines drawn as free bases though some values may be those of a salt):

SMILES | melting point [°C]
CC(=O)SCC(Cc1ccccc1C)C(=O)O (stereo not given) | 63 to 70
CCCCCCCCCCCCS(=O)(=O)N1CCCSC1=C[N+](=O)[O-] | 116 to 117
O=C(O)C(O)Cc1ccccc1[N+](=O)[O-] (stereo not given) | 95 to 98
Cc1cc2c(-c3ccccc3C)c(NC(=O)Nc3ccc(F)cc3F)c(=O)n(C)c2cc1Cl | 227 to 229
CSc1cc(C)nc(SC)c1NC(=O)CSc1nc2ccccc2o1 | 203 to 205
CCn1nc2c(N)nc3ccccc3c2c1CC1(F)CCN(C(=O)NC(C)C)CC1 | 205 to 207
C/C(=C\c1ccc(C(=O)O)cc1)c1ccc(O)c(C(C)(C)C)c1 | 209
COCc1cc(-c2nnc3c4ccccc4c(OCc4ncn(C)n4)nn23)no1 | 236
CC1(C)CCC(C)(C)c2cc(C(C)(O)COc3ccc(C(=O)O)c(O)c3)ccc21 (stereo not given) | 170 to 171
COC1C(O)C(CO)OC1n1ccc(N)nc1=O (stereo not given) | 252 to 254
Cn1cc(C2=C(c3cn(C)c4ccc(O)cc34)C(=O)NC2=O)c2ccccc21 | 284 to 287
Cc1cc(Br)c2c(c1)C(C(=O)O)c1ccccc1CO2 (stereo not given) | 196 to 197
COc1ccc(CNc2nc(N3CCC[C@H]3CO)cnc2C(=O)O)cc1Cl | 169 to 171
CC(=NO)c1ccnc(N)c1 | 215 to 217
CCOC(=O)c1cnc(Cc2ccc(OC)c(OC)c2)c2cc(OC)c(OC)cc12 | 117 to 119
CS(=O)(=O)c1ccc(-n2c(-c3ccc(F)cc3)nc(O)c(C#N)c2=O)cc1 | > 285
Oc1ccccc1Oc1ncc(Cl)cn1 | 131 to 139
N#Cc1cnc2cnc(F)cc2c1O | 214 to 215
Cc1cc(S)n2nc(S(=O)(=O)O)nc2n1 | 254 to 256
CCOc1cc(C(CS(C)(=O)=O)N2C(=O)c3cccc(Cc4ccc[nH]4)c3C2=O)ccc1OC (stereo not given) | 80 to 82

SMILES | melting point [°C]
COC(=O)[C@H](/C=C/[C@H](Cc1ccccc1)NC(=O)OC(C)(C)C)Cc1ccccc1 | 84 to 85
CC(C)c1nc2c(s1)C(=O)N(c1cccc(C(F)(F)F)c1)C2=O | 80
OC(CNc1ccnc2cc(Cl)ccc12)c1ccccc1 (stereo not given) | 221 to 222
COC(=O)C(=O)c1ccc(OCCCOc2ccccc2)cc1 | 61 to 62
CC(=NNC(=O)c1ccccc1C)c1ccncc1 | 187
CC1(COc2ccc(CC3SC(=O)NC3=O)cc2)CCc2cc(C(=O)O)ccc2O1 (stereo not given) | 223 to 225
CCc1nc(OC)c(NC(=O)N2CCN(c3cccc(O)c3)CC2)cc1C | 168 to 170
CCOC(=O)COc1ccc(CCNC(=O)C[C@H]2O[C@H](c3cccc(OC)c3OC)c3cc(Cl)ccc3N(CC(C)(C)CO)C2=O)cc1 | 142 to 145
COc1ccc(Cn2cnc3c(-c4ccco4)nc(C)nc32)cc1 | 127 to 130
COC(=O)C(C)(C)C(Cc1ccc(OC)cc1)N(C)S(=O)(=O)c1ccc(C)cc1 (stereo not given) | 132 to 134
Fc1ccc(C(CCCN2CCC(c3n[nH]c4ccccc34)CC2)c2ccc(F)cc2)cc1 | 154 to 156
CCCCOc1cccc(OCCBr)c1 | 32 to 34
O=S1(=O)c2ccccc2C=Cc2ccc(C=Nc3ccccc3)cc21 | 184 to 185
C=CCC(NC(C)=O)C(=O)NCc1ccccc1 (stereo not given) | 118 to 120
O=C(NO)c1cnc(N(CCO)Cc2cc3nc(-c4cccc5[nH]ncc45)nc(N4CCOCC4)c3s2)nc1 | 190 to 194
COC(=O)C1CCSSC(C)(C)C(=O)N1 (stereo not given) | 110 to 112
O=C(NCc1cccnc1)c1ccnc(N2CCN(Cc3ccc(F)cc3)C2=O)c1 | 153 to 155
C=CCc1cc(C(=O)OCC)ccc1O | 67 to 70
CN(C)CCNC(=O)c1c2ccccc2nc2c1[nH]c1ccccc12 | 175 to 176
COc1ccc2[nH]cc(CC(=O)N3CCN(c4ccc([N+](=O)[O-])cc4)CC3)c2c1 | 239 to 240
